These results are taken from publication PMC4280898, “Diazido Mixed-Amine Platinum(IV) Anticancer Complexes Activatable by Visible-Light Form Novel DNA Adducts” (Chemistry (Weinheim an Der Bergstrasse, Germany), 2013).

The test system of one assay is pSP73KB plasmid DNA. In words: DNA interstrand cross-linking, denaturing agarose gel. It counts as biochemical. The note with it: in the dark. The protocol: Interstrand cross-links: In this experiment, interstrand cross-linking efficiency of photoactivated 1 or 2, and of 5 or 6 in the dark was investigated using pSP73KB plasmid DNA. The DNA samples were treated with complexes 5 or 6 in the dark or with 1 or 2 under irradiation conditions and then were analysed by agarose gel electrophoresis under denaturing conditions. The interstrand cross-linked DNA appears in the autoradiogram as the top bands (Figure 11), which migrate more slowly than the single-strand DNA (the bottom bands). The frequencies of interstrand cross-links formed by photoactivated 1 or 2, and 5 and 6 (in the dark) were 23(±5), 19(±3), 9(±3) and 16(±2) %, respectively.
Figure 11 Agarose gel electrophoresis for quantification of DNA interstrand cross-linking. The interstrand cross-links (ICLs) by: A) 1 or 2 under irradiation conditions (420 nm light), and B) 5 or 6 in the dark were formed in linear pSP73KB plasmid DNA. A) Lane 1: control, non-modified DNA; lane 2: control, non-modified DNA, but irradiated; lanes 3–7: DNA modified by photoactivated 1 at rb=3.35×10^−5, 6.70×10^−5, 3.35×10^−4, 6.70×10^−4, 3.35×10^−3, respectively; lanes 8–12: DNA modified by photoactivated 2 at rb=3.70×10^−5, 7.40×10^−5, 3.70×10^−4, 7.40×10^−4, 3.70×10^−3, respectively. […]

For a further assay, the system named is pUC19 plasmid DNA. In words: Unwinding of negatively supercoiled DNA, native agarose gel. The following applies: in the dark. It counts as biochemical. The method, then:
Unwinding of negatively supercoiled DNA: The unwinding induced in negatively supercoiled pUC19 plasmid DNA by treatment with photoactivated 1 or 2 or with 5 or 6 in the dark was measured. The degree of supercoiling was monitored using electrophoresis in native agarose gels[25] (Figure 12). The DNA unwinding angles for 1, 2, 5, and 6 were 22(±3)°, 20(±3)°, 19(±5)° and 23(±2)°, respectively.
Figure 12 Unwinding of negatively supercoiled […] plasmid DNA by: A) 1, and B) 2 under irradiation conditions (420 nm light); or C) 5, and D) 6 in the dark. The top bands in each panel correspond to the form of nicked plasmid and the bottom bands to the closed, negatively supercoiled plasmid. A) Lane 1: control, non-modified DNA; lane 2: irradiated control DNA; […]: DNA modified by photoactivated 1 at rb=0.016, 0.024, 0.032, 0.041 and 0.049, respectively. B) Lanes 1 and 10: control, non-modified DNA; lane 2: irradiated control DNA; lanes 3–9: DNA modified by photoactivated 2 at rb=0.008, 0.011, 0.020, 0.026, 0.035, 0.042 and 0.050, respectively. C) Lanes 1 and 12: control, non-modified DNA; lanes 2–11: DNA modified by 5 in the dark at rb=0.018, 0.027, 0.036, 0.045, 0.054, 0.063, 0.072, 0.081, 0.090 and 0.1, respectively. […]

For the next assay, the target named is T1, HMGB1 protein (Homo sapiens, UniProt P09429).
T1 sequence (P09429 1-215): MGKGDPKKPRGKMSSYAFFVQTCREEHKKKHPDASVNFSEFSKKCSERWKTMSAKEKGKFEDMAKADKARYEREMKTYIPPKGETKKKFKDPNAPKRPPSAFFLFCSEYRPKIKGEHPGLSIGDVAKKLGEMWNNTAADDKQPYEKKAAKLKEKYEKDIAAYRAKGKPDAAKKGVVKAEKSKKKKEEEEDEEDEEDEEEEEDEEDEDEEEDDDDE
In words: HMGB1 recognition of platinated 50 bp duplex, gel mobility shift assay. It is filed as binding. The following applies: 50 bp duplex modified in the dark. An excerpt:
HMGB1 protein recognition: The interactions of high mobility group protein B1 (HMGB1) with a 50 bp duplex DNA adducts formed by 1 or 2 under irradiation conditions and 5 or 6 in the dark were investigated using a gel mobility shift assay.
Figure 13 Recognition by HMGB1 protein of platinated DNA. Affinity of full-length HMGB1 to non-modified (control) DNA (lanes 1 and 2) or DNA modified by cisplatin (7) in the dark (lanes 3 and 4), 5 in the dark (lanes 5 and 6), 6 in the dark (lanes 7 and 8), photoactivated 1 (420 nm light, lanes 9 and 10) or photoactivated 2 (420 nm light, lanes 11 and 12). Lanes 1, 3, 5, 7, 9, 11, no protein added; lanes 2, 4, 6, 8, 10, 12, 700 ng HMGB1 added.

Each structure is given as a SMILES string. “And” between values parts separate entries of the source, which are not always exact repeats. Equal values may be shown once.

On to `C[NH2+][Pt@SP3-2]([Cl])([Cl])[n+]1ccccc1` [Complex 5, trans-[PtCl2(MA)(Py)]], for which, in the assay with pSP73KB plasmid DNA, the Interstrand cross-link was 9(±3) % and 9±3%. Also, in the assay with pUC19 plasmid DNA, the Unwinding angle is 19(±5) ° and 19±5 °. Besides, the HMGB1 protein recognition result at HMGB1 protein is “no detectable binding and no”.

As to `C[NH2+][Pt@SP3-2]([Cl])([Cl])[n+]1ccsc1` [Complex 6, trans-[PtCl2(MA)(Tz)]], the Interstrand cross-link in the assay with pSP73KB plasmid DNA was 16(±2) % and 16±2%. In addition, the Unwinding angle in the assay on pUC19 plasmid DNA was 23(±2) ° and 23±2 °. Further, at HMGB1 protein, the HMGB1 protein recognition entry is “no detectable binding and no”.
